Data taken from patent US20100069407A1, “CXCR2 inhibitors” (priority 2006, published 2010).

Molecular target: T1, human CXCR2 receptor (Homo sapiens, UniProt P25025)
T1 construct: purchased Biosignal Packard Inc; host or cells: Chinese hamster ovary cell (CHO-K1) membranes
T1 sequence (P25025 1-360): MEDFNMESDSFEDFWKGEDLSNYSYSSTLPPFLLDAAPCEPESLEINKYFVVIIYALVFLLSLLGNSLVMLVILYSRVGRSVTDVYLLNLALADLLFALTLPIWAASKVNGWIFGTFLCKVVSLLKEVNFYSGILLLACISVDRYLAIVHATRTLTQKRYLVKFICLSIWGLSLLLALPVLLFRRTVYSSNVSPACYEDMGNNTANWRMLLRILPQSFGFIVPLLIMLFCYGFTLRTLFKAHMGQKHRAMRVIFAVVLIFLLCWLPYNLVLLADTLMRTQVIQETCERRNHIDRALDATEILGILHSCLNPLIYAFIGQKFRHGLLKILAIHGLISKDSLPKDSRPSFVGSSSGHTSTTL
Experiment: [35S]-GTPγS binding assay for human CXCR2 receptor using SPA technology
Assay type: biochemical
Details: CHO-K1 membranes expressing human CXCR2; 100 nM IL-8 stimulation
Description: The assay is performed in duplicate in 96 well Optiplate™ microplate in a final volume of 250 μl per well. Compounds are diluted in DMSO (0.5% final concentration) and incubated in 20 mM HEPES buffer pH 7.4 containing 10 mM MgCl2, 100 mM NaCl, 1 mM EDTA plus 100 nM IL-8, 50 μM GDP and 500 μM [^35S]GTPγS per well. SPA beads (1 mg/well final concentration) were pre-mixed with the membranes (10 μg/well final concentration) in assay buffer: 20 mM HEPES buffer pH 7.4 containing 10 mM MgCl2, 100 mM NaCl, 1 mM EDTA. The bead membrane mixture is added to each well, plates are sealed and incubated at room temperature for 60 minutes. The plate is centrifuged and read on Packard TopCount™ scintillation counter, program [^35S dpm] for 1 min/well. Data are expressed as the % response to 100 nM IL-8 minus basal.

Question: Which IC50 does the source give for `CCc1nc2nc(CSc3cccc(F)c3F)cc(O)n2n1` [Example 4] here?
Answer: The IC50 was 2400 nM.
